Experimental data published in patent publication US9326994B2, “Amine functional polyamides” (GENZYME CORPORATION, priority 2013, dated 2016).

What was measured:
Format in all cases: cell-based
[1] = system: human lung epithelial Carcinoma cell line (A 549); assay: Cytotoxicity assay, human lung epithelial cells; set-up: unit not given here; details: A 549, 96 hours, CellTiter-Glo
[2] = system: renal proximal tubule epithelial cells (RPTEC); assay: in vitro
Method: (§1) Cells were plated at 3,000 cells/well (RPTEC) or 5,000 cells/well (NHDF) in 96-well plates and incubated overnight at 37° C. The compounds were added to the wells, and the cells were incubated for 4 days. Alomar Blue was added to one set of plates and incubated for 4 hours. The plates were read when the compound was added (time zero) and at the end of the study. Fluorescence was read using 530 nm (excitation) and 590 nm (emission) according to the manufacturer's instructions.

Pseudomonas aeruginosa = assay: Minimum inhibitory concentration assay; details: Mueller-Hinton broth, 18-24 hours at 35° C.; unit assumed
Method: (§2) The minimum inhibitory concentration (MIC) assay determines the lowest concentration of an antimicrobial agent required to inhibit the growth of test organisms after incubation. MIC assays were performed against an internal standard panel of organisms to identify compounds with antimicrobial activity. The MIC assay was subsequently repeated against other specialized microbial panels. Assays were conducted against the following clinically relevant microorganisms: Staphylococcus aureus subsp. aureus, Staphylococcus epidermis, Escherichia coli, Pseudomonas aeruginosa, Haemophilius influenzae. The compounds were tested for bacteriocidal activity, time course of killing, toxicity against tissue culture cells grown in vitro, and in some cases were tested for antimicrobial activity in vivo. The MIC assays were performed according to the Performance Standards for Antimicrobial Susceptibility Testing, 2006, vol. M100-S15, Fifteenth Informational Supplement, NCCLS, 940 West Valley Road, Suite 1400, Wayne, Pa. 19087. […] The solution was then filter-sterilized through a 0.22 μm filter. Two-fold serial dilutions of polymer were prepared in Mueller-Hinton broth with cations aliquotted into 96-well microtiter plates. The plates were then inoculated with 5×10^5 cells/mL of target organism and incubated 18-24 hours at 35° C. […] The MIC value is the lowest concentration of compound that inhibits growth; accordingly, a higher MIC value indicates less potency where a lower MIC valued indicated more potency.

[3] = system: Staphylococcus aureus subsp. aureus; assay: Minimum inhibitory concentration assay; details: Mueller-Hinton broth, 18-24 hours at 35° C.; unit assumed
Method: as §2

Haemophilus influenzae = assay: Minimum inhibitory concentration assay; details: Mueller-Hinton broth, 18-24 hours at 35° C.; unit assumed
Method: as §2

Staphylococcus epidermis = assay: Minimum inhibitory concentration assay; details: Mueller-Hinton broth, 18-24 hours at 35° C.; unit assumed
Method: as §2

Escherichia coli = assay: Minimum inhibitory concentration assay; details: Mueller-Hinton broth, 18-24 hours at 35° C.; unit assumed
Method: as §2

erythrocytes = assay: Erythrocyte lysis assay; details: overnight 37° C., hematocrit 1%
Method: After incubation, the plates were centrifuged and the supernatant transferred to flat-bottomed 96-well plates. The supernatant was assayed using the QuantiChrom Hemoglobin kit according to the manufacturer's instructions. The IC50 values were calculated using GraphPad Prism.

in vitro = details: human
Method: as §1

[4] = system: normal human dermal fibroblasts (NHDF)
Method: as §1, with “Mammalian cell cytotoxicity assays were performed using two primary human cell lines: renal proximal tubule epithelial cells (RPTEC—Cambrex CC-2553) and normal human dermal fibroblasts (NHDF—Cambrex CC-2509). Cells” for “Cells”

4,4′-trimethylene dipiperidinebispropanoic acid-diaminopropane heptamer
Lung Epi IC50 [1]: 418.0
Cytotoxicity (Kidney Epithelial IC50) [2]: 190 µg/mL
Pseudomonas aeruginosa (MIC) (Pseudomonas aeruginosa): > 128 µg/mL
Staphylococcus aureus subsp. aureus (MIC) [3]: 2 µg/mL
Haemophilus influenzae (MIC) (Haemophilus influenzae): 128 µg/mL
Staphylococcus epidermis (MIC) (Staphylococcus epidermis): 1 µg/mL
Escherichia coli (MIC) (Escherichia coli): 8 µg/mL
Erythrocyte Lysis (Hemolysis IC50) (erythrocytes): >3200

4,4′-trimethylene dipiperidinebispropanoic acid-diaminopropane pentamer
Lung Epi IC50 [1]: 259.0
Pseudomonas aeruginosa (MIC) (Pseudomonas aeruginosa): > 128 µg/mL
Staphylococcus aureus subsp. aureus (MIC) [3]: 16 µg/mL
Haemophilus influenzae (MIC) (Haemophilus influenzae): 64 µg/mL
Staphylococcus epidermis (MIC) (Staphylococcus epidermis): 1 µg/mL
Escherichia coli (MIC) (Escherichia coli): 16 µg/mL
Erythrocyte Lysis (Hemolysis IC50) (erythrocytes): >3200

4-guanidinobenzene terminated Poly(4,4-trimethylene dipiperidinebispropanoic acid-diaminopropane)
Cytotoxicity (Kidney Epithelial IC50) [2]: 6 µg/mL

NCCCNC(=O)CCN1CCC(CCCC2CCN(CCC(=O)NCCCN)CC2)CC1 [4,4-trimethylene dipiperidinebispropanoic acid-diaminopropane]
CC50 at 4 days (in vitro): > 512 µg/mL
IC50 at 4 days (in vitro; RPTEC, 4 days incubation, Alomar Blue, read-out: Cytotoxicity (Kidney Epithelial IC50)): > 512 µg/mL
Pseudomonas aeruginosa (MIC) (Pseudomonas aeruginosa): > 128 µg/mL
Staphylococcus aureus subsp. aureus (MIC) [3]: > 128 µg/mL
Haemophilus influenzae (MIC) (Haemophilus influenzae): > 128 µg/mL
Staphylococcus epidermis (MIC) (Staphylococcus epidermis): > 128 µg/mL
Escherichia coli (MIC) (Escherichia coli): > 128 µg/mL
IC50 (erythrocytes; Erythrocyte, read-out: Erythrocyte Lysis (Hemolysis IC50)): > 3200 µg/mL

Carboxy terminated Poly(4,4-trimethylene dipiperidinebispropanoic acid-diaminopropane)
Cytotoxicity (Kidney Epithelial IC50) [2]: 43 µg/mL

Methyl ester terminated Poly(4,4-trimethylene dipiperidinebispropanoic acid-diaminopropane)
Cytotoxicity (Kidney Epithelial IC50) [2]: 1.5 µg/mL

Poly (4,4′-trimethylene dipiperidine bispropanoic acid-4,4′-trimethylene dipiperidine)
Cytotoxicity (Human Dermal Fibroblast IC50) [4]: 3

Poly (4,4′-trimethylene dipiperidine bispropanoic acid--N,N′-dimethyl-1,3-diaminopropane)
Cytotoxicity (Human Dermal Fibroblast IC50) [4]: 5

Poly(4,4-trimethylene dipiperidine bispropanoic acid-diaminoethane)
Cytotoxicity (Human Dermal Fibroblast IC50) [4]: 178

Poly(4,4-trimethylene dipiperidinebispropanoic acid 4,4′-dipiperidine)
Cytotoxicity (Human Dermal Fibroblast IC50) [4]: 2.0

Poly(4,4-trimethylene dipiperidinebispropanoic acid-N(2-aminoethyl)-diaminoethane)
Cytotoxicity (Human Dermal Fibroblast IC50) [4]: 1.7

Poly(4,4-trimethylene dipiperidinebispropanoic acid-diaminopropane)
Cytotoxicity (Human Dermal Fibroblast IC50) [4]: 141.3

Poly(4,4′-dipiperidinebispropanoic acid-3,3′-diamino-N-methyl-dipropylamine) [Poly(4,4′-dipiperidinebispropanoic acid-3,3′-diamino-N-methy] [listing 1 of 2 here]
Cytotoxicity (Human Dermal Fibroblast IC50) [4]: 3

Poly(4,4′-dipiperidinebispropanoic acid-3,3′-diamino-N-methyl-dipropylamine) [Poly(4,4′-dipiperidinebispropanoic acid-3,3′-diamino-N-methy] [listing 2 of 2 here]
Cytotoxicity (Human Dermal Fibroblast IC50) [4]: 2

Poly(4,4′-dipiperidinebispropanoic acid-3,3′-diamino-dipropylamine) [Poly(4,4′-dipiperidinebispropanoic acid-3,3′-diamino-dipropy]
Cytotoxicity (Human Dermal Fibroblast IC50) [4]: 2

Poly(4,4′-dipiperidinebispropionic acid-1,3-diaminopropane)
Cytotoxicity (Human Dermal Fibroblast IC50) [4]: 7

Poly(4,4′-dipiperidinebispropionic acid-1,4-diaminobutane)
Cytotoxicity (Human Dermal Fibroblast IC50) [4]: 5

Poly(4,4′-trimethylene dipiperidinebispropanoic acid-1,4-benzyldiamine)
Cytotoxicity (Human Dermal Fibroblast IC50) [4]: 4.703

Poly(4,4′-trimethylenedipiperidine-1,3-diamninopropane-N,N′-di-3-propionic acid)
Cytotoxicity (Kidney Epithelial IC50) [2]: 2 µg/mL
Cytotoxicity (Human Dermal Fibroblast IC50) [4]: 2

Poly(4,4′-trimethylenedipiperidinebispropionic acid-2-dydroxy 1,3-diaminopropane)
Cytotoxicity (Human Dermal Fibroblast IC50) [4]: 50

Poly(4,4′-trimethylenedipiperidinebispropionic acid-bis(4-aminobutyl)ether)
Cytotoxicity (Human Dermal Fibroblast IC50) [4]: 3

Poly(piperazinebispropanoic acid-1,4-diaminobutane)
Cytotoxicity (Human Dermal Fibroblast IC50) [4]: 1905

Poly(piperazinebispropanoic acid-2,2-diaminodiethylamine)
Cytotoxicity (Human Dermal Fibroblast IC50) [4]: 1111.6

Poly(piperazinebispropanoic acid-3,3′ diamino-N-methyl-dipropylamine)
Cytotoxicity (Kidney Epithelial IC50) [2]: 5.3 µg/mL

Poly(piperazinebispropanoic acid-N(3-aminopropyl)1,3-propanediamine)
Cytotoxicity (Human Dermal Fibroblast IC50) [4]: 15.3

Poly(piperazinebispropanoic acid-N-methyl-2,2-diaminodiethylamine)
Cytotoxicity (Human Dermal Fibroblast IC50) [4]: 3068.6
